In patent publication US20240189312A1, “COMPOSITION FOR TREATING ACUTE BRAIN INJURY OR NEURODEGENERATIVE DISEASE, METHOD OF MAKING, AND USE THEREOF” (priority 2022, published 2024):
“Also recorded” adds a separate entry of the source.

Key:
CYP46A = CYP46A (Homo sapiens, UniProt Q9Y6A2); conditions: cited from earlier work
CYP46A1 = CYP46A1 (Homo sapiens, UniProt Q9Y6A2); conditions: cited from earlier work
5XFAD mice = test: Alzheimer's disease model in 5XFAD mice; conditions: 5XFAD test mice
Method: 5XFAD mice are obtained. 5XFAD transgenic mice express 5 human familial Alzheimer's disease (FAD) mutants in amyloid-beta precursor protein (APP) and presenilin 1 (PS1) driven by the Thy1 promoter. […] Experimental 5XFAD mice are obtained by crossing heterozygous transgenic mice with C57BL/6 wild-type breeders. Wild-type littermates are used as controls and randomly allotted to each experiment. Male mice are used in all experiments. All mice are housed in a standard animal facility with a 12 h alternating light/dark cycle.
Control mice are administered a placebo.
A Barns maze protocol is performed. Briefly, the apparatus is a revolvable white acrylic disc elevated from the floor with 18 holes equally spaced along the perimeter of the circle and positioned in a brightly light. One hole is selected as the escape target hole, and a dark escape chamber is placed under the target hole consistent for each trial. Mice are allowed to freely explore on the platform for 5 min without the escape chamber, and habituated to the escape chamber for 2 min on two consecutive days. In the training phase, a session of 2 trials is performed by each mouse. Each mouse is covered under a nontransparent cylinder placed in the center of the maze. After 15 s, the cylinder is gently removed to allow mouse to explore the maze for 180 s until the target hole is found. […] The maze and the escape chamber are wiped with 70% ethanol. The mouse is identified to find the target chamber when the back of the mice crossed the target hole. The mouse is considered to have entered the target chamber if the entire body is on the platform. The primary latency that mice took to find the target hole is documented for each trial. Two trials per day are performed for eight days. For the probe test, memory retention is assessed 5 days after the last training trial. The duration of the probe trial is 90 s. […] The position of the target hole is the same as that in the training period. The primary latency to find the target hole and time in the target quadrant is analyzed by Anymaze software.
A T maze protocol is performed. Briefly, before performing the task, the diet of mice is restricted daily to hold 80% to 85% of their primary body weight throughout the task. The T maze apparatus is placed in a quiet room, and light intensity is held at a constant level. During the training, a forced choice is followed by a free choice for each trial. In the forced-choice phase, a food pellet is placed in either the left or right choice arm. The door to the choice arm with food pellet is opened, while the other choice arm is closed. The mouse is allowed to consume the pellet. When the pellet is consumed, the mouse is returned to the start arm. After the forced choice is completed, the free choice is initialized. During the free choice, all doors are open; the mouse is allowed to freely enter one of two arms. If the mouse entered the same arm as in the forced-choice phase, the trial is considered to result in an “error,” and the pellet is removed. If the mouse entered the opposite arm as in the forced-choice phase, the trial is considered to have a “correct” result, and the mouse is rewarded with a food pellet. Following each session, the apparatus is cleaned with 70% ethanol. Six consecutive trials are performed in a session per day. The percentage of correct responses is calculated in each session.
Motor activity and anxiety is studied in the open field test. […] The mouse activity is monitored under an infrared camera for 5 min.

[1] = system: MCAO induced ischemic brain injury; test: MCAO ischemic stroke model, TTC staining; assay type: in vivo, mice; conditions: ICV 40 μM stock, 1 μl, 3 h before 45 min MCAO, TTC at 24 h
[2] = system: primary cultured mouse cortical neurons; test: OGD toxicity (neuronal loss, LDH release); assay type: cell-based; conditions: MK-801
Method: (§1) Cultures of mouse primary cortical neurons were prepared as described previously and modified [Leng T D, Lin J, Sun H W, Zeng Z, O'Bryant Z, Inoue K, et al. Local anesthetic lidocaine inhibits TRPM7 current and TRPM7-mediated zinc toxicity. CNS Neurosci Ther 2015; 21: 32-9.]. The use of mice for neuronal cultures was approved by the Institutional Animal Care and Use Committee of Morehouse School of Medicine. Briefly, the brains of fetuses (embryonic day 16) were removed quickly from anesthetized pregnant Swiss mice and placed in cold Ca2+/Mg2+-free PBS. Cerebral cortices were dissected and incubated with 0.05% trypsin-EDTA for 10 min at 37° C., followed by trituration. Cells were plated in 35-mm poly-L-ornithine-coated culture dishes at a density of 1×10^6 cells. […]
(§2) LDH release was measured using a cytotoxicity detection kit (Cat. No. 11644793001, Roche Diagnostics) according to the manufacturer's instruction, as described in previous studies [Leng T D, Lin J, Sun H W, Zeng Z, O'Bryant Z, Inoue K, et al. Local anesthetic lidocaine inhibits TRPM7 current and TRPM7-mediated zinc toxicity. […] The absorbance at 492 and 620 nm was measured by spectrometer (SpectraMax Plus, Molecular devices, Sunnyvale, CA, USA). LDH release was determined based on subtracting absorbance at 620 nm from that at 492 nm.

NMDA receptor = conditions: cited from earlier work
[3] = system: primary cultured mouse cortical neurons; test: NMDA toxicity (neuronal loss, LDH release); assay type: cell-based; conditions: MK-801 10 μM
Method: as §1, §2

select neurons = conditions: cited from earlier work

CYP46A, sequence (Q9Y6A2 whole entry): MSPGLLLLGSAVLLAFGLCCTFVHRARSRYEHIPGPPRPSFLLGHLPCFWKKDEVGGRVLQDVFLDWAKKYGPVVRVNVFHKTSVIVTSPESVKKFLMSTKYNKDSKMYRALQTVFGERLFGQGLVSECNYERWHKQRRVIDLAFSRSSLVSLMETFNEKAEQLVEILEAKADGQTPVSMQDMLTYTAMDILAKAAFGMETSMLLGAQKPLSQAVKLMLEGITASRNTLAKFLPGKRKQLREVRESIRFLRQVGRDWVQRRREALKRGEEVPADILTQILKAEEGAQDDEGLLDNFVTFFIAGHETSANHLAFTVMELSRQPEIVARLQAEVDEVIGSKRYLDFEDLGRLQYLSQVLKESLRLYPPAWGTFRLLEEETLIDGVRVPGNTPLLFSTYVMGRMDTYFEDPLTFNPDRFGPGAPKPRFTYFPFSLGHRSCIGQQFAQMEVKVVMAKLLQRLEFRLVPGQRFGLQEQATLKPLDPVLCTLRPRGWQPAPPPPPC
CYP46A1, sequence (Q9Y6A2 whole entry, species assumed): as the sequence (Q9Y6A2 whole entry) above

SMILES: Clc1ccccc1C(c1ccccc1)(c1ccccc1)n1ccnc1 [clotrimazole]
- affinity for CYP46A (CYP46A): nanomolar affinity

SMILES: C[C@@H](c1ncncc1F)[C@](O)(Cn1cncn1)c1ccc(F)cc1F [voriconazole]
- synthesis of 24S-HC in vitro (CYP46A1; at ˜1 M (so in the source)): almost completely inhibit
- inhibitor of CYP46A1 (CYP46A1): potent inhibitor
- Aβ deposition (5XFAD mice): attenuate Aβ deposition
- cognitive functions (5XFAD mice): improve cognitive functions
- microgliosis (5XFAD mice): decrease microgliosis
- neuroinflammation (5XFAD mice): reduce neuroinflammation
- synapse loss and neuronal loss (5XFAD mice): reversed
- ischemic brain injury (infarction, TTC staining) [1]: reduces ischemic brain injury
- ischemic brain injury (infarction, TTC staining) ([1]; listed as Vori): dramatically reduced ischemic brain injury; also recorded: protects against 45 min MCAO induced ischemic brain injury
- affinity for CYP46A (CYP46A): nanomolar affinity

SMILES: C[C@]12N[C@H](Cc3ccccc31)c1ccccc12 [MK-801, dizocilpine]
- inhibition of 24S-HC increased OGD toxicity [2]: completely inhibited
- inhibition of 24S-HC increased OGD toxicity ([2]; listed as MK801): completely abolishes the toxicity of 24S-HC
- Aβ[1-42]-triggered excitotoxicity via the NMDA receptor (NMDA receptor): can be prevented
- inhibition of 24S-HC increased NMDA toxicity [3]: completely inhibited
- inhibition of 24S-HC increased NMDA toxicity ([3]; listed as MK801): completely abolishes the toxicity of 24S-HC
- cytoplasmic vacuoles in select neurons (select neurons): causes cytoplasmic vacuoles in select neurons

SMILES: N[C@@H]1C[C@H]1c1ccccc1 (racemic) [tranylcypromine]
- affinity for CYP46A (CYP46A): nanomolar affinity

SMILES: S=C(NC1CCCCC1)N1CCC(c2cnc[nH]2)CC1 [thioperamide]
- affinity for CYP46A (CYP46A): nanomolar affinity
